Source: patent publication US10787640B2, “Producing mesodermal cell types and methods of using the same” (The Board of Trustees of the Leland Stanford Junior …, priority 2015, dated 2020)

Tests used:
Assay type in all cases: cell-based, human
[1] = tested on: day 3 hemogenic precursors; assay: Hemogenic precursors into day 5 hematopoietic intermediates
Method: (§1) SOX17^mCherry/+ H9 hESCs (referred to as SOX17-mCherry hESCs throughout this study) were routinely propagated in mTeSR1 (StemCell Technologies)+1% penicillin/streptomycin. They were passaged ˜1:12-1:25 as fine clumps using Accutase (Gibco) onto plates precoated with a Geltrex substratum (Gibco) in mTeSR1 medium supplemented with thiazovivin ([…]; a ROCK inhibitor). After overnight plating, hESCs were washed (DMEM/F12) and differentiated towards posterior PS using BMP4 (15-40 ng/mL, R&D Systems), CHIR99021 ([…]), FGF2 (20 ng/mL, Invitrogen) and PIK90 (100 nM, Calbiochem) for 24 hours, with the optional inclusion of Activin (30 ng/mL, R&D Systems) to induce mid PS. Day 1 mid or posterior PS was subsequently washed (DMEM/F12) and further differentiated using BMP4 (40 ng/mL), GDC-0941 (0.25-2.5 μM, Cellagen Technology), Forskolin (10 μM, Tocris), SB-505124 ([…]), VEGF (100 ng/mL, R&D Systems), XAV939 (1 μM, Tocris) and ascorbic acid-2-phosphate (200 μg/mL, Sigma) for 24 hours. Day 2 cultures were further directed into the definitive hematopoietic lineage/hemogenic precursors by Activin A (15 ng/mL), GDC-0941 (0.25-2.5 μM), VEGF (100 ng/mL), XAV939 (1 μM) and ascorbic acid-2-phosphate (200 μg/mL) for 24 hours. Day 3 definitive hematopoietic progenitors were subsequently differentiated into early Runx1^lowGfi1^low hemogenic intermediates through day 4-5 treatment with BMP4 (50 ng/mL), TTNPB (500 nM), VEGF (100 ng/mL) and XAV939 (1 μM) for 48 hours, supplemented with SB-505124 (2 μM) on day 5. Day 5 populations were then dissociated into single cells, counted and reaggregated in individual wells of a low-adhesion V-bottom or U-bottom 96-well plate (e.g., Thermo Fisher, catalog no. 249952) with ˜15,000-20,000 cells seeded per well. Aggregates were cultured for 48 additional hours until day 7 in BMP4 (50 ng/mL), TTNPB (500 nM), VEGF (100 ng/mL), XAV939 (1 μM), SB-505124 (2 μM), SCF (25-50 ng/mL, R&D Systems), IL6 (10 ng/mL, R&D Systems) and IL6RA (250-1000 ng/mL, R&D Systems). All differentiation was conducted in serum-free CDM2 fully-defined basal media.

lateral mesoderm = assay: Forelimb versus hindlimb progenitor specification from lateral mesoderm; conditions: RA signaling activated for 24 hours during lateral mesoderm induction (D1-2)
Method: Undifferentiated hPSCs (wild-type H7 as well as TBX5-Venus V19-2 H9 hESCs) were maintained in mTeSR1 media on Geltrex-coated plates. As described, they were differentiated into mid primitive streak for 24 hours (D0-1; 30 ng/mL Activin+40 ng/mL BMP4+6 μM CHIR99021+20 ng/mL FGF2+100 nM PIK90) and subsequently differentiated into lateral mesoderm (D1-2; 1 μM A-83-01+30 ng/mL BMP4+1 μM C59), with the inclusion of 50 nM of TTNPB or 2 μM ATRA on D1-2 for trunk lateral mesoderm that was subsequently competent for forelimb differentiation.
Day 2 trunk lateral mesoderm was differentiated into day 3 forelimb progenitors (D2-3; 1 μM A-83-01+1 μM DMH1+3 μM CHIR99021). By contrast, day 2 non-trunk lateral mesoderm was differentiated into day 3 hindlimb progenitors (D2-3; 25 ng/mL Activin+1 μM DMH1+3 μM CHIR99021).

SOX17-mCherry hESCs = assay: Hematopoietic mesoderm and SOX17+CD34+ hemogenic precursor specification
Method: as §1

[2] = tested on: day 5 hematopoietic intermediates; assay: Day 5-7 continued differentiation of hematopoietic intermediates, factor withholding; conditions: individually withholding the factor from the 8 factors, 48 hours
Method: as §1

[3] = tested on: hESC-derived cardiac mesoderm; assay: Cardiac mesoderm differentiation into cardiovascular fates, qPCR; conditions: added to WNT blockade with BMP activation
Method: Day 2 lateral mesoderm was differentiated into day 4 cardiac mesoderm by treating them with 1 μM A8301+30 ng/mL BMP4+1 μM C59+20 ng/mL FGF2 for 48 hrs, or alternatively, with 1 μM A8301+30 ng/mL BMP4+20 ng/mL FGF2 for 24 hrs followed by 25 ng/mL Activin+30 ng/mL BMP4+1 μM C59 for the next 24 hrs (schema in FIG. 5E; positive effect of mid-stage Activin shown in FIG. 12K). Subsequently, day 4 cardiac mesoderm was briefly washed (DMEM/F12) and treated with 30 ng/mL BMP4+1 μM XAV939+200 μg/mL 2-phospho-ascorbic acid (Sigma) for 48-96 hrs to yield day 6-8 cardiomyocyte-containing populations. Spontaneously contracting cardiomyocyte foci were evident from day 8 onwards.
(§2) C) To reveal the possible identity of non-cardiac mesoderm lineages that were contaminating cardiac mesoderm-containing cultures, NKX2.5-GFP hESCs were differentiated towards mid primitive streak (day 1) and were differentiated towards a heterogeneous population containing cardiac mesoderm (day 3) by treatment with SB-505124+BMP4+C59 (without FGF2) on days 2-3 of differentiation. FACS was performed on day 3 to purify either NKX2.5-GFP^+ or NKX2.5-GFP^− cells (top subpanels) which were sorted for qPCR (bottom subpanels). Gene expression was normalized to expression of a gene in the NKX2.5-GFP^+ fraction (dotted line). D) Timecourse of gene expression in hESCs differentiating towards mid primitive streak and lateral mesoderm, with treatment by SB-505124+BMP4+C59 on days 2-3 of differentiation. […] G) To assess whether a stabilized vitamin C analog (ascorbic acid-2-phosphate) (AA2P) enhanced cardiac mesoderm differentiation into cardiomyocytes, day 4 hESC-derived cardiac mesoderm was exposed to BMP4 (30 ng/mL)+XAV939 (1 μM) for 48 hours in the presence or absence of 200 μg/mL AA2P and qPCR was conducted of day 6 populations; qPCR data were normalized such that expression values in the highest-expressing sample was normalized=1.0. […] J) In the mouse embryo, endocardium (progenitors to heart-affiliated endothelium) are marked by transient coexpression of pan-heart marker Nkx2.5 together with endothelial markers (Ferdous et al., 2009; Stanley et al., 2002).

[4] = tested on: hESC-derived lateral mesoderm; assay: Lateral mesoderm patterning, qPCR
Method: Subsequently, day 1 anterior primitive streak was briefly washed (DMEM/F12) and differentiated towards day 2 paraxial mesoderm for 24 hours (1 μM A-83-01+3 μM CHIR99021+250 nM LDN-193189+20 ng/mL FGF2). Separately, day 1 mid primitive streak was differentiated towards day 2 lateral mesoderm for 24 hours (1 μM A-83-01+30 ng/mL BMP4+1 μM C59; with 2 μM SB-505124 sometimes used instead of A-83-01).
as §2

[5] = tested on: day 3 early somite progenitors; assay: Patterning of early somite progenitors into sclerotome or dermomyotome; conditions: 21K with C59, 2-3 days
Method: Day 2 paraxial mesoderm was briefly washed (DMEM/F12) and further differentiated into day 3 early somite/somitomere precursors for 24 hours (1 μM A-83-01+250 nM LDN-193189+1 μM C59+500 nM PD0325901). Subsequently, day 3 early somites were dorsoventrally patterned into either ventral somites/sclerotome (5 nM 21K+1 μM C59) or dorsal somites/dermomyotome (3 μM CHIR99021+150 nM Vismodegib). Sclerotome induction was conducted for 48-72 hours (leading to day 5-6 ventral somite progenitors). […] Media was changed 24 hours for all steps. The Hedgehog agonist 21K, which has been previously described in, e.g., Brunton et al., 2009 the disclosure of which is incorporated herein by reference in its entirety, was commercially synthesized.
Day 3 early somites were briefly washed (DMEM/F12), treated with BMP4+CHIR99021+Vismodegib for 24 hours, washed again (DMEM/F12) and subsequently treated with CHIR99021 (3 μM)+21K (5 nM) for 24 hours. This day 5 dermomyotome was further empirically differentiated towards skeletal muscle-like progeny (using medium containing 2% horse serum, which has been previously described in, e.g., Xu et al. 2013, the disclosure of which is incorporated herein by reference in its entirety) for 12 days, yielding day 17 skeletal muscle-containing populations.
FIG. 11: A) To determine the length of time required for sclerotome differentiation, a qPCR timecourse was performed, encompassing undifferentiated hESCs (D0), day 2 hESC-derived paraxial mesoderm (D2 PXM), day 3 hESC-derived early somite progenitors, and hESC-derived day 3 early somite progenitors that were exposed to sclerotome inductive conditions (5 nM 21K+1 μM C59) for 24 or 48 hours. B) Description of EF1α-BCL2-T2A-GFP lentiviral construct (otherwise known as “C306”; top) and FACS plot of a stably-transduced polyclonal H9 hESC line with near-uniform expression of the BCL2-T2A-GFP transgene (green contour) by comparison to uncolored wild-type hESCs (bottom) (see above methods for details of derivation of the H9 BCL2-T2A-GFP hESC line). C) Higher-magnification picture of BCL2-T2A-GFP hESC-derived sclerotome ectopic bone grafts (originally described above in FIG. 4, panel E), showing that despite the near-ubiquitous expression of GFP throughout the ectopic bone graft (indicating its human provenance), the blood vessels are clearly GFP-negative and therefore presumably derived from the mouse host; scale bar=1 mm. […] L) Description of EF1a-BCL2-T2A-GFP lentiviral construct (otherwise known as “C306”; top) and FACS plot of a stably-transduced polyclonal H9 hESC line with near-uniform expression of the BCL2-T2A-GFP transgene (green contour) by comparison to uncolored wild-type hESCs (bottom) (see the methods described herein for details of derivation of the H9 BCL2-T2A-GFP hESC line). M) Description of UBC-Luciferase-T2A-tdTomato lentiviral construct (top); bioluminescent assay of cultured H9 UBC-Luciferase-T2A-tdTomato hESCs validates that these cells are luciferase-expressing in vitro (bottom).

## C/C(=C\c1ccc(C(=O)O)cc1)c1ccc2c(c1)C(C)(C)CCC2(C)C [TTNPB]
[1]; day 5
  TBX20 expression: important to downregulate TBX20 expression
[1]; withdrawal of the factor from BMP, VEGF, XAV939, TTNPB
  RUNX1 expression by day 5: crippled RUNX1 expression
Lateral mesoderm
  forelimb transcription factor TBX5 expression on D3: paramount for lateral mesoderm to subsequently express key forelimb transcription factor TBX5

## O=c1[nH]c(-c2ccc(C(F)(F)F)cc2)nc2c1CSCC2 [XAV939, 3,5,7,8-Tetrahydro-2-[4-(trifluoromethyl)phenyl]-4H-thiopyrano[4,3-d]pyrimidin-4-one]
[1]; day 5
  GATA1 expression: pivotal to prevent BMP-induced GATA1 expression
SOX17-mCherry hESCs; treatment on day 2-3, 24 hours
  SOX17+ cells formed by day 3: doubled the formation of SOX17^+ cells
[2]
  GFI1B expression: strongly diminished

## O=C1O[C@H]([C@@H](O)CO)C(O)=C1OP(=O)(O)O [ascorbic acid-2-phosphate]
[3]
  cardiomyocyte differentiation: further enhanced
SOX17-mCherry hESCs; included on days 2 and 3
  efficiency of CD34+ progenitors produced by day 3: moderately enhanced the efficiency of CD34^+ progenitors

## Cc1cc(-c2ccc(CC(=O)Nc3ccc(-c4cccnc4)cc3)cc2)ccn1 [C59, 4-(2-Methyl-4-pyridinyl)-N-[4-(3-pyridinyl)phenyl]benzeneacetamide]
[4]; day 2 lateral mesoderm, SB-505124+BMP4 with CHIR99021 or C59, 24 hours
  lateral mesoderm fate (qPCR): induced an anterior lateral mesoderm/cardiac mesoderm fate
[4]; last 12 hrs C59 or 3 μM CHIR in addition to BS
  pan-lateral mesoderm marker FOXF1 expression: not markedly changed
[5]
  sclerotome fate induction: efficiently induced the sclerotome fate
